# Results reported in patent US20220380574A1, “DUAL-FUNCTION MELT ADDITIVES” (3M INNOVATIVE PROPERTIES COMPANY, priority 2019, published 2022).
# System: S. aureus ATCC 6538
# Assay: Modified AATCC Method 100, antibacterial activity of nonwoven BMF webs (viable cell count after 24 hrs)
# Format: cell-based
# Conditions: statement in words on the additive in electret webs
# Source text: Besides the charge-enhancing properties, the charge-enhancing additives also provide anti-microbial properties. Antimicrobials are agents that kill microorganisms or stops their growth. Antimicrobials work at a cellular level to continually disrupt and prevent the growth of microorganisms. By creating an inhospitable environment for microorganisms like bacteria, mold and mildew, antimicrobials protect everyday products like countertops, toys, surface coatings, textiles and hospital equipment. The antimicrobial activity of the current charge-enhancing additives in electret webs can be measured in a variety of different ways. One particularly suitable measurement technique is the standard test method of “Modified AATCC Method 100—Assessment of Antibacterial Finishes on Textile Materials” was used for the nonwoven webs performance test. This method is used to evaluate the antibacterial activity of textile products treated with antibacterial finish, which is suitable for nonwoven hydrophobic fabric webs. Details of the test method are provided in the Examples section, below. The standard test method of “Modified AATCC Method 100—Assessment of Antibacterial Finishes on Textile Materials” was used for the nonwoven webs performance test. […] Viable cell count of S. Aureus ATCC 6538 on BMF web after 24 hrs were measured.
smiles,measurement,value
"c1ccc(-c2nc3ccccc3[nH]2)cc1 [CA-4, 2-Phenylbenzimidazole]",combination of charge-enhancing and anti-microbial properties,do not have this combination of properties
